Test results reported in patent US9993494B2, “Compositions and methods for treating fibrotic disease” (eFFECTOR Therapeutics, Inc., priority 2014, dated 2018).

Test system: normal human lung fibroblasts
Assay: Ribosomal profiling: translational efficiency in TGFβ-treated fibroblasts
Assay type: cell-based
Description: Ribosomal profiling allows for measurement of changes in transcription and translation on a genome-wide basis accompanying TGFβ-dependent transformation of fibroblasts to myofibroblasts. Ribosomal profiles of the TGFβ-treated fibroblasts from Example 1 (about 6×10^6 cells/10 cm plate) were prepared and analyzed for changes in translational efficiencies with respect to potential disease-associated cellular changes accompanying this TGFβ-induced transformation.
Briefly, cells were washed with cold PBS supplemented with cycloheximide and lysed with 1× mammalian cell lysis buffer for 10 minutes on ice. Lysates were clarified by centrifugation for 10 minutes at 14,000 rpm and supernatants were collected. Cell lysates were processed to generate ribosomal protected fragments and total mRNA according to the instructions included with the ARTseq Ribosome Profiling Kit (Illumina, San Diego, Calif.). Sequencing of total RNA (RNA) and of ribosome-protected fragments of RNA (RPF) was carried out using RNA-Seq methodology according to the manufacturer's instructions (Illumina). To analyze the ribosomal profiles, RNA-Seq reads were processed with tools from the FASTX-Toolkit (fastq_quality_trimmer, fastx_clipper and fastx_trimmer). Unprocessed and processed reads were evaluated for a variety of quality measures using FastQC, and processed reads were mapped to the human genome using TopHat (see, e.g., Trapnell et al., Bioinformatics 25:1105, 2009). Gene-by-gene assessment of the number of fragments strictly and uniquely mapping to the coding region of each gene was conducted using HTSeq-count, a component of the HTSeq package. […] Genes with low counts in either RPF or RNA were excluded from differential analyses. Pathway and network analyses of differential data were conducted using Ingenuity Pathway Analysis (IPA).

With TGFβ the “Log2 TE RPS6KA5” value (ENSG00000100784, 5 replicates) was −1.431, the “Log2 TE CEP192” value (ENSG00000101639, 5 replicates) was −1.192 and the “change in translational profile of CEP192 caused by TGFβ” value (ENSG00000101639, Control vs. TGFβ) was “C (C = <−1.0 to −1.5)”. The “change in translational profile of AMMECR1 caused by TGFβ” value (ENSG00000101935, Control vs. TGFβ) was “D (D = <1.0 to 1.5)”, the “change in translational profile of PLP2 caused by TGFβ” value (ENSG00000102007, Control vs. TGFβ) was “D (D = <1.0 to 1.5)” and the “Log2 TE SGK3” value (ENSG00000104205, 5 replicates) was −1.011. The “Log2 TE TRPA1” value (ENSG00000104321, 5 replicates) was −1.256, the “Log2 TE EIF3E” value (ENSG00000104408, 5 replicates) was 1.469 and the “change in translational profile of EIF3E caused by TGFβ” value (ENSG00000104408, Control vs. TGFβ) was “E (E = <1.5 to 2.5)”. For the same substance, the “Log2 TE EEF1D” value (ENSG00000104529, 5 replicates) was 1.619, the “change in translational profile of EEF1D caused by TGFβ” value (ENSG00000104529, Control vs. TGFβ) was “E (E = <1.5 to 2.5)” and the “change in translational profile of C19orf53 caused by TGFβ” value (ENSG00000104979, Control vs. TGFβ) was “D (D = <1.0 to 1.5)”. The “Log2 TE RPS16” value (ENSG00000105193, 5 replicates) was 1.989, the “Log2 TE RPS19” value (ENSG00000105372, 5 replicates) was 1.55 and the “Log2 TE GLTSCR2” value (ENSG00000105373, 5 replicates) was 2.067. The “change in translational profile of GLTSCR2 caused by TGFβ” value (ENSG00000105373, Control vs. TGFβ) was “E (E = <1.5 to 2.5)”, the “change in translational profile of RAB3D caused by TGFβ” value (ENSG00000105514, Control vs. TGFβ) was “B (B = <−1.5 to −2.5)” and the “Log2 TE RPL18A” value (ENSG00000105640, 5 replicates) was 1.669. For the same substance, the “change in translational profile of RPL18A caused by TGFβ” value (ENSG00000105640, Control vs. TGFβ) was “E (E = <1.5 to 2.5)”, the “Log2 TE COMP” value (ENSG00000105664, 5 replicates) was 1.317 and the “change in translational profile of COMP caused by TGFβ” value (ENSG00000105664, Control vs. TGFβ) was “E (E = <1.5 to 2.5)”. For the same substance, the “Log2 TE GLCCI1” value (ENSG00000106415, 5 replicates) was −1.842, the “change in translational profile of GLCCI1 caused by TGFβ” value (ENSG00000106415, Control vs. TGFβ) was “B (B = <−1.5 to −2.5)” and the “Log2 TE CORO2A” value (ENSG00000106789, 5 replicates) was 1.212. For the same substance, the “change in translational profile of CORO2A caused by TGFβ” value (ENSG00000106789, Control vs. TGFβ) was “E (E = <1.5 to 2.5)”, the “change in translational profile of GDF10 caused by TGFβ” value (ENSG00000107623, Control vs. TGFβ) was “C (C = <−1.0 to −1.5)” and the “Log2 TE RPL28” value (ENSG00000108107, 5 replicates) was 1.869. The “change in translational profile of RPL28 caused by TGFβ” value (ENSG00000108107, Control vs. TGFβ) was “E (E = <1.5 to 2.5)”, the “Log2 TE RPL19” value (ENSG00000108298, 5 replicates) was 1.075 and the “change in translational profile of RPL19 caused by TGFβ” value (ENSG00000108298, Control vs. TGFβ) was “D (D = <1.0 to 1.5)”. For the same substance, the “Log2 TE RASD1” value (ENSG00000108551, 5 replicates) was 1.836, the “change in translational profile of RASD1 caused by TGFβ” value (ENSG00000108551, Control vs. TGFβ) was “E (E = <1.5 to 2.5)” and the “Log2 TE SLC16A6” value (ENSG00000108932, 5 replicates) was −1.3497. The “change in translational profile of NAT9 caused by TGFβ” value (ENSG00000109065, Control vs. TGFβ) was “D (D = <1.0 to 1.5)”, the “Log2 TE INPP4B” value (ENSG00000109452, 5 replicates) was −1.569 and the “Log2 TE RPL34” value (ENSG00000109475, 5 replicates) was 1.608. For the same substance, the “change in translational profile of RPL34 caused by TGFβ” value (ENSG00000109475, Control vs. TGFβ) was “E (E = <1.5 to 2.5)”, the “Log2 TE NEIL3” value (ENSG00000109674, 5 replicates) was −2.63 and the “Log2 TE CRYAB” value (ENSG00000109846, 5 replicates) was 1.107. For the same substance, the “change in translational profile of CRYAB caused by TGFβ” value (ENSG00000109846, Control vs. TGFβ) was “D (D = <1.0 to 1.5)”, the “Log2 TE RPS13” value (ENSG00000110700, 5 replicates) was 1.539 and the “Log2 TE KRT18” value (ENSG00000111057, 5 replicates) was 1.811. The “Log2 TE GAPDH” value (ENSG00000111640, 5 replicates) was 1.263, the “change in translational profile of GAPDH caused by TGFβ” value (ENSG00000111640, Control vs. TGFβ) was “E (E = <1.5 to 2.5)” and the “Log2 TE C12orf57” value (ENSG00000111678, 5 replicates) was 1.173. For the same substance, the “change in translational profile of C12orf57 caused by TGFβ” value (ENSG00000111678, Control vs. TGFβ) was “D (D = <1.0 to 1.5)”, the “Log2 TE BVES” value (ENSG00000112276, 5 replicates) was 1.173 and the “Log2 TE RPS12” value (ENSG00000112306, 5 replicates) was 1.642. The “change in translational profile of MDFI caused by TGFβ” value (ENSG00000112559, Control vs. TGFβ) was “A (A = <−2.5)”, the “Log2 TE HBEGF” value (ENSG00000113070, 5 replicates) was 1.088 and the “change in translational profile of HBEGF caused by TGFβ” value (ENSG00000113070, Control vs. TGFβ) was “D (D = <1.0 to 1.5)”. For the same substance, the “Log2 TE THG1L” value (ENSG00000113272, 5 replicates) was 1.155, the “Log2 TE RPL24” value (ENSG00000114391, 5 replicates) was 1.304 and the “change in translational profile of RPL24 caused by TGFβ” value (ENSG00000114391, Control vs. TGFβ) was “E (E = <1.5 to 2.5)”. For the same substance, the “Log2 TE EEF1B2” value (ENSG00000114942, 5 replicates) was 1.434, the “change in translational profile of EEF1B2 caused by TGFβ” value (ENSG00000114942, Control vs. TGFβ) was “E (E = <1.5 to 2.5)” and the “Log2 TE IFIH1” value (ENSG00000115267, 5 replicates) was −1.416. For the same substance, the “change in translational profile of IFIH1 caused by TGFβ” value (ENSG00000115267, Control vs. TGFβ) was “B (B = <−1.5 to −2.5)” and the “Log2 TE RPS15” value (ENSG00000115268, 5 replicates) was 1.3.
